Values quoted from earlier work as cited in patent publication US6979468B1, “Oral composition and method for the treatment of inflammatory cutaneous disorders” (Sirius Laboratories, priority 2002, dated 2005).

Tested on: acne vulgaris
Settings: administered orally, 100–600 milligrams per day in divided doses taken 2 to 4 times per day

For NC(=O)c1cccnc1 [nicotinamide], the “effect on acne lesions” value is given as “decrease inflammatory lesions such as papules, pustules, and cysts, but not comedones”.
